Assay results taken from patent US9550792B2, “Polycyclic substituted pyrazole kinase activity inhibitors and use thereof” (priority 2013, dated 2017).
Values after ≈ are worked out from the molar mass of the structure shown. Like-named read-outs stand apart in the source and are kept apart here.

Assays:
CDK6/cyclin D1 = CDK6/cyclin D1 (Homo sapiens, UniProt Q00534); assay: Kinase IC50, 33P labeled isotope method; assay type: biochemical
CDK9/cyclin K = CDK9/cyclin K (Homo sapiens, UniProt P50750); assay: Kinase IC50, 33P labeled isotope method; assay type: biochemical; settings: 20 μM ATP
Chain of CDK9/cyclin K (P50750 19-315 limits assumed): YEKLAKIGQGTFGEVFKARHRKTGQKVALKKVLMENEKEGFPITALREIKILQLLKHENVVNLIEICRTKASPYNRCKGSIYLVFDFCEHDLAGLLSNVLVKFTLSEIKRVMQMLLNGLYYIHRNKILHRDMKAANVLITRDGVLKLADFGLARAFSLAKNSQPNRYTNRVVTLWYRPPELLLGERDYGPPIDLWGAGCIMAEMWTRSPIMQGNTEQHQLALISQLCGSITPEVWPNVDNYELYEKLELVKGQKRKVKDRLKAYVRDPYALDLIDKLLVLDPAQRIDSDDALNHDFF
Chain of CDK9/cyclin K (O75909 whole entry partner): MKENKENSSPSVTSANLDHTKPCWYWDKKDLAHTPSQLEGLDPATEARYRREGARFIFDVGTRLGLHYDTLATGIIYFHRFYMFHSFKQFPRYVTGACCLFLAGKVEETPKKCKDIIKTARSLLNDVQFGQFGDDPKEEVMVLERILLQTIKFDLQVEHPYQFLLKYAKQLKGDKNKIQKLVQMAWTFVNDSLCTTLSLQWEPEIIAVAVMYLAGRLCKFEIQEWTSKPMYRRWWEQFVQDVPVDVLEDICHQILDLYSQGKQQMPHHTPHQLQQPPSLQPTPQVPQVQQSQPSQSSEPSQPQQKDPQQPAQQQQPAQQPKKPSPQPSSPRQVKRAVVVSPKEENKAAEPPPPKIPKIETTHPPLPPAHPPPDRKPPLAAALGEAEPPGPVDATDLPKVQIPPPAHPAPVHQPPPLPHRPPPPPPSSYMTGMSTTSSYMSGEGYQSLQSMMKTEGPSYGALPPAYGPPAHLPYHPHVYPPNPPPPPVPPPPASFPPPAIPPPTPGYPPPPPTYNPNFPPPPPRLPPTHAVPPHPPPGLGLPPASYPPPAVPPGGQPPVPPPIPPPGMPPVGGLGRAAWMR

FLT4/VEGFR3 = FLT4/VEGFR3 (Homo sapiens, UniProt P35916); assay: Kinase IC50, 33P labeled isotope method; assay type: biochemical
Chain of FLT4/VEGFR3 (P35916 845-1173 limits assumed): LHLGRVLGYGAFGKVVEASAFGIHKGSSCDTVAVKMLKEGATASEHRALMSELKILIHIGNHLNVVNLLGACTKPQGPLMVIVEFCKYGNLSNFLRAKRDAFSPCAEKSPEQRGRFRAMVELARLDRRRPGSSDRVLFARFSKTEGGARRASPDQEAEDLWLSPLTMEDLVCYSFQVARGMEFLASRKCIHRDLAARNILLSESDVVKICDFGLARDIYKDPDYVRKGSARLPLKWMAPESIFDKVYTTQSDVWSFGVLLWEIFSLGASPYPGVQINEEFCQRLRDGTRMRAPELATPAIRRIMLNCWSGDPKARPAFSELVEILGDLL

GSK3b = GSK3b (Homo sapiens, UniProt P49841); assay: Kinase IC50, 33P labeled isotope method; assay type: biochemical; settings: 20 μM ATP
Chain of GSK3b (P49841 56-340 limits assumed): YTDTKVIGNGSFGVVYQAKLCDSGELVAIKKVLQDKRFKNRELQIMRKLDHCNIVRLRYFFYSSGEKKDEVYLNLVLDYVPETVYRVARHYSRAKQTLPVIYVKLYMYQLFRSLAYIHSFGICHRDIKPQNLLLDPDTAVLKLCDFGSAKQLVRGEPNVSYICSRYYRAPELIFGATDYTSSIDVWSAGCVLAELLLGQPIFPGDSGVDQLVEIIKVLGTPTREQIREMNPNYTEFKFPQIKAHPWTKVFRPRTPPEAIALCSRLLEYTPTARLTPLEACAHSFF

FLT3 = molecular target: T1, FLT3 (Homo sapiens, UniProt P36888); assay: Kinase IC50, 33P labeled isotope method; assay type: biochemical; settings: 20 μM ATP
T1 sequence (P36888 610-943 limits assumed): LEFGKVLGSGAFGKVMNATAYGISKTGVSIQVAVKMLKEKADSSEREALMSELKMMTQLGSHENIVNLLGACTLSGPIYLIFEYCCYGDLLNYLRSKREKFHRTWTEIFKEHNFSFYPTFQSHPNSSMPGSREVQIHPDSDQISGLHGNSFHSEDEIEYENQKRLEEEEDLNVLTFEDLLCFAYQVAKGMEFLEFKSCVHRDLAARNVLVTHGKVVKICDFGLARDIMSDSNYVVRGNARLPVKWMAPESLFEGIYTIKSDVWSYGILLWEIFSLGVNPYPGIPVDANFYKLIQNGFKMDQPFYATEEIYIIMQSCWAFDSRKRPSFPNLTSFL

Candida parapsilosis = assay: Antifungal activity, modified broth microdilution; assay type: cell-based; settings: Lodderomyces parapsilosis; 48 hours at 35, approximately 50% reduction of growth
[1] = test system: Candida albicans - ATCC 36082; assay: Antifungal activity, modified broth microdilution; assay type: cell-based; settings: Candida albicans, ATCC36082; 48 hours at 35, approximately 50% reduction of growth
Candida tropicalis = assay: Antifungal activity, modified broth microdilution; assay type: cell-based; settings: Candida tropicalis; 48 hours at 35, approximately 50% reduction of growth
Cryptococcus neoformans = assay: Antifungal activity, modified broth microdilution; assay type: cell-based; settings: Cryptococcus neoformans; 48 hours at 35, approximately 50% reduction of growth
Phytophthora infestans = assay type: in vivo
[2] = test system: colon cancer cell line HCT116; assay: Anti-tumor activity in vitro, MTT method; assay type: cell-based; settings: Homo sapiens, HCT-116, 48 h, read-out: HCT-116 (IC50/μM)

Chain of CDK6/cyclin D1 (Q00534 13-300 limits assumed): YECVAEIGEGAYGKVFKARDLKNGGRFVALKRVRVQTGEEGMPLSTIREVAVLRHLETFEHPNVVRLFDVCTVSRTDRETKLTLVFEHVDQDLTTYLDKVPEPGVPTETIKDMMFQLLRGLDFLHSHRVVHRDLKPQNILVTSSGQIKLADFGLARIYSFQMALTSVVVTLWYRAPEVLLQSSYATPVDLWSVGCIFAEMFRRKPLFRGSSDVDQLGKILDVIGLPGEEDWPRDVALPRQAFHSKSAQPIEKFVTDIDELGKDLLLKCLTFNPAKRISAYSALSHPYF
Chain of CDK6/cyclin D1 (P24385 whole entry partner): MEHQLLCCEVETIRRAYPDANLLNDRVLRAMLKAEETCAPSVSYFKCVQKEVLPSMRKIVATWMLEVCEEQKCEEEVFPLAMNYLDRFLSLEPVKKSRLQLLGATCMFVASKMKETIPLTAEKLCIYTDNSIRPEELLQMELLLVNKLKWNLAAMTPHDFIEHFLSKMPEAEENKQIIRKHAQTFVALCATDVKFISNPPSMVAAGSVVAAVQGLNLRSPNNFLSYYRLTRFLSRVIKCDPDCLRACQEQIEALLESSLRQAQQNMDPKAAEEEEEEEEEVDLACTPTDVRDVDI

Row | SMILES | IC50 (CDK6/cyclin D1; 20 μM ATP, read-out: IC50* CDK6/cyclin D1) [nM] | IC50 (CDK9/cyclin K) [nM] | IC50 (FLT4/VEGFR3; 20 μM ATP, read-out: IC50* FLT4/VEGFR3) [nM] | IC50 (GSK3b) [nM] | melting point [°C] | IC50 (FLT3) [nM] | MIC (Candida parapsilosis) [µg/mL] | MIC [1] [µg/mL] | MIC (Candida tropicalis) [µg/mL] | MIC (Cryptococcus neoformans) [µg/mL] | Severity of tomato leaf blight (Phytophthora infestans; 0.0001 (unit not given)) | Severity of tomato leaf blight (Phytophthora infestans; 0.001 (unit not given)) | Severity of tomato leaf blight (Phytophthora infestans; 0.01 (unit not given)) | Severity of tomato leaf blight (Phytophthora infestans; 0.1 (unit not given)) | IC50 [2] [µM] | IC50 (CDK6/cyclin D1) [nM] | IC50 (FLT4/VEGFR3) [nM]
1 | Cc1cc2c(Nc3c[nH]nc3C(=O)Nc3ccc(CN4CCN(C)CC4)cc3)ncnc2s1 [Compound I-3, 4-(4-(6-methylthieno[2,3-d]pyrimidinyl)amino)-N-(4-((4-methyl-1-piperazinyl)methyl)phenyl)-1H-3-pyrazolecarboxamide] | 4 | 37 | 4 | 1 | 235 to 238 |  |  |  |  |  |  |  |  |  |  |  | 
2 | CN1CCN(Cc2ccc(NC(=O)c3n[nH]cc3Nc3ncnc4occc34)cc2)CC1 [Compound I-21, 4-(4-furo[2,3-d]pyrimidinylamino)-N-(4-((4-methyl-1-piperazinyl)methyl)phenyl)-1H-3-pyrazolecarboxamide] |  | 45 |  | 1 | 255 to 257 | 1 | 9.76 (≈ 22.6 µM) | 7.82 (≈ 18.1 µM) | 8.29 (≈ 19.2 µM) | 13.8 (≈ 32 µM) | ++++ (>60% blight) | ++ (15-40% blight) | + (0-15% blight) | − | 9.58 |  | 
3 | CN1CCN(Cc2ccc(NC(=O)c3n[nH]cc3Nc3ncnc4[nH]ccc34)cc2)CC1 [Compound I-11, 4-(4-(7H-pyrrolo[2,3-d]pyrimidinyl)amino)-N-(4-((4-methyl-1-piperazinyl)methyl)phenyl)-1H-3-pyrazolecarboxamide] |  |  |  | 1 |  | 1 | 11.2 (≈ 26 µM) | 7.45 (≈ 17.3 µM) | 7.72 (≈ 17.9 µM) | 15 (≈ 34.8 µM) | +++ (40-60% blight) | ++ (15-40% blight) | + (0-15% blight) | − |  | 4 | 4
